The source of these data is patent US20100324058A1 (Obschestvo S Organichennoi Otvetsttvennoctiyou "Bionika", priority 2007, published 2010).

One series concerns experimental animals. The note with it: lethal dose of argothroban after clinical testing; cited from earlier work.
The conditions of series [1]: cited from earlier work.
Series [2] has as its target T1, thrombin (Homo sapiens, UniProt P00734). Description: Effect of test compounds on thrombin activity: hydrolysis rate of chromogenic (Chromozim TH) or fluorogenic (BOC-Ala-Pro-Arg-AMC) substrate. It counts as biochemical. The note with it: for inhibition at 0.0025 µM: concentration of compound 2.5 nM; for inhibition at 0.005 µM: concentration of compound 5 nM; for inhibition at 0.025 µM: concentration of compound 25 nM; for inhibition at 0.05 µM: concentration of compound 50 nM. From the text: The effect of the synthesized substances on thrombin activity was studied by measuring the hydrolysis rate of specific low molecular weight substrates with thrombin in an aqueous buffering solution in the absence and presence of these compounds. One of these substrates was chromogenic substrate Chromozim TH (CTH): N-(p-Tosyl)-Gly-Pro-Arg-pNA [Sonder S A, Fenton J W 2nd. Thrombin Specificity with Tripeptide Chromogenic Substrates: Comparison of Human and Bovine Thrombins with and without Fibrinogen Clotting Activities. Clin. Chem., 1986, 32(6):934-937]. Another substrate that was used in a number of experiments was fluorogenic substrate BOC-Ala-Pro-Arg-AMC (S), wherein BOC is butoxycarbonyl residue, and AMC is 7-amino-4-methylcoumaryl [Kawabata S, Miura T, Morita T, Kato H, Fujikawa K, Ivanaga S, Takada K, Kimura T, Sakakibara S. Highly Sensitive peptide-4-methylcoumaryl-7-amide Substrates for Blood-Clotting Proteases and Trypsin. Eur. J. Biochem., 1988, 172(1):17-25].
The holes of a common 96-hole board were filled with a buffer containing 140 mM of NaCl, 20 mM of HEPES, and 0.1% polyethylene glycol (Mw=6,000), at pH=8.0. […] When a chromogenic substrate was used, accumulation of the colored reaction product—para-nitroaniline—was followed on a spectrophotometric Molecular Devices board reader (Thermomax, U.S.), measuring the increase in optical density on the 405 nm wavelength. […] The reaction kinetics was registered on a fluorometric Titertek Fluoroskan board reader (LabSystem, Finland).
The initial reaction rate was measured as the tangent of the kinetic curve inclination angle on a straight section (first 10 to 15 minutes of registration). Reaction rate without an inhibitor was a ssumed to be 100%. The mean arithmetic value of two independent measurements was used as the end result.

Series [3] has as its target T1, thrombin. The conditions noted are these: literature, PDB complex; cited from earlier work.
Where [4] appears, read: concentration of compound 2.5 mcM.
Where [5] appears, read: concentration of compound 0.25 mcM.
[6] abbreviates: concentration of compound 0.5 mcM.

One may read the LD50 as the dose at which mortality reaches 50%. For the compound `CC1CNc2c(cccc2S(=O)(=O)N[C@@H](CCCNC(=N)N)C(=O)N2CC[C@@H](C)C[C@@H]2C(=O)O)C1` (stereo partly drawn) [Argatroban], the LD50 in the series on experimental animals is on record as 475 mg/kg. Besides, the T1/2 in plasma in series [1] is 36 min.
A word on the inhibition: it is the share of the control response that was lost under treatment. Low values mean a response near the control, high ones a response far below the control. For the compound `Cc1cc(OCC[n+]2ccc(N)cc2)cc(OS(=O)(=O)c2ccccc2S(C)(=O)=O)c1` [HC_036s_IOC], on thrombin [2], the inhibition at 0.0025 µM was determined as 29%, 0.005 µM produced 28% inhibition, the inhibition at 0.025 µM was 79% and 0.05 µM produced 88% inhibition. Besides, the “Hydrolysis rate inhibition, %” value at thrombin [2] (setting [4]) was found to be 96%.
The like results for `Cc1cc(OCC[n+]2ccc(N)cc2)cc(OS(=O)(=O)c2ccccc2F)c1` [HC_037s_IOC] were, in that order, 43%, 59%, 82%, 86% and 89%.
At thrombin [2], `Cc1ccc(S(=O)(=O)Oc2cc(C)cc(OCC[n+]3ccc(N)cc3)c2)cc1` [HC_038s_IOC] showed an inhibition at 0.005 µM of 47%, an inhibition at 0.025 µM of 56% and an inhibition at 0.05 µM of 85%. Moreover, at thrombin [2] (setting [4]), the “Hydrolysis rate inhibition, %” value came out at 96%.
As for `Cc1cc(OCC[n+]2ccc(N)cc2)cc(OS(=O)(=O)c2ccc(Cl)cc2)c1` [HC_039s_IOC], at thrombin [2], the inhibition at 0.0025 µM came to 24%, 0.005 µM produced 44% inhibition, 0.025 µM produced 73% inhibition and the inhibition at 0.05 µM came to 88%. Further, the “Hydrolysis rate inhibition, %” value at thrombin [2] (setting [4]) was determined as 98%.
At thrombin [2], `Cc1cc(OCCSC(=N)N)cc(OS(=O)(=O)c2ccccc2S(C)(=O)=O)c1` [HC_040s_IOC] registered an inhibition at 0.0025 µM of 4%, an inhibition at 0.005 µM of 19%, an inhibition at 0.025 µM of 66% and an inhibition at 0.05 µM of 75%. For the same compound, the “Hydrolysis rate inhibition, %” value at thrombin [2] (setting [4]) was found to be 100%.
`Nc1cc[n+](CCOc2cccc(NS(=O)(=O)c3ccccc3)c2)cc1` [HC_041s_IOC]: the “Hydrolysis rate inhibition, %” value at thrombin [2] (concentration of compound 0.1 mcM) is reported as 56%; on thrombin [2] (setting [5]), 62%; at thrombin [2] (setting [6]), 75%; at thrombin [2] (concentration of compound 1.75 mcM), 88%; on thrombin [2] (concentration of compound 3.75 mcM), 90%; at thrombin [2] (concentration of compound 25 mcM), 95%. Also, the “Hydrolysis rate inhibition, %” value on thrombin [2] (concentration of compound 250 mcM) is 99%.
For the compound `Cc1cc(OCC[n+]2ccsc2N)cc(OS(=O)(=O)c2ccccc2Cl)c1.[I-]` [HC_045s_IOC], the “Hydrolysis rate inhibition, %” value on thrombin [2] (concentration of compound 0.125 mcM) is 10%; on thrombin [2] (setting [5]), 18%; on thrombin [2] (setting [6]) it was 42%; on thrombin [2] (concentration of compound 1.25 mcM) it was 66%; on thrombin [2] (setting [4]), 87%.
On to `Cc1cc(OCCSC(=N)N)cc(OS(=O)(=O)c2ccccc2Cl)c1` [HC_046s_IOC], for which 0.00125 µM produced 18% inhibition against thrombin [2] (concentration of compound 1.25 nM). On thrombin [2], this compound showed an inhibition at 0.0025 µM of 39%, an inhibition at 0.005 µM of 59% and an inhibition at 0.025 µM of 92%. This compound had an inhibition at 0.0125 µM against thrombin [2] (concentration of compound 12.5 nM) of 77%.
Compound `Cc1cc(OCC[n+]2ccc(N)nc2)cc(OS(=O)(=O)c2ccccc2)c1.[I-]` [HC_047s_IOC] displayed an inhibition at 0.01 µM at thrombin [2] (concentration of compound 10 nM) of 8%. Further, at thrombin [2], 0.025 µM produced 10% inhibition. Also, the inhibition at 0.05 µM at thrombin [2] was found to be 14%. For the same compound, the “Hydrolysis rate inhibition, %” value on thrombin [2] (setting [5]) worked out at 36%; at thrombin [2] (setting [6]), 49%; on thrombin [2] (concentration of compound 1.85 mcM), 84%; at thrombin [2] (setting [4]), 90%.
The Kd is the concentration at which binding is half-saturated. With `N=c1ccc2cc3ccc(N)cc3[nH]c-2c1` [Proflavin], the Kd at thrombin [3] is roughly 10 µM.
